Assay: Compound was tested for the […] domain binding using BIA core binding assay

IC50	Kd	Structure (SMILES)
46 µM	–	CC(=O)N1CCC[C@@H]1C(=O)N[C@@H](CCCN=C(N)N)C(=O)N1CCC[C@@H]1C(=O)N[C@@H](CC(C)C)C(=O)N1CCC[C@]12CC[C@H]1SC[C@@H](C(=O)N[C@@H](C)C(=O)N3CCC[C@H]3C(=O)NCC(=O)O)N1C2=O
–	1.6 µM	CC(C)C[C@H](NC(=O)[C@H](CO)NC(=O)[C@@H](N)C(C)C)C(=O)N[C@@H](C)C(=O)N[C@@H](CCCN=C(N)N)C(=O)N[C@@H](CCCN=C(N)N)C(=O)N1CCC[C@H]1C(=O)N[C@@H](CC(C)C)C(=O)N1CCC[C@H]1C(=O)N1CCC[C@H]1C(=O)N[C@@H](CC(C)C)C(=O)N1CCC[C@H]1C(=O)O
75 µM	–	CC(=O)N1CCC[C@@H]1C(=O)N[C@@H](CCCN=C(N)N)C(=O)N1CCC[C@@H]1C(=O)N[C@@H](CC(C)C)C(=O)N1CCC[C@@]12CC[C@@H]1SC[C@H](C(=O)N[C@@H](C)C(=O)N3CCC[C@H]3C(=O)NCC(=O)O)N1C2=O
